For 16 compounds, IC50 results are on record in patent US11648254B2 (Kumquat Biosciences Inc., priority 2021, dated 2023).

For orientation: IC50 means the midpoint of a concentration-inhibition curve.

Read-outs that look alike come from different tables or passages of the source. Bounds are passed on as bounds.

In assay [1] the target is SOS1 (Homo sapiens (Human), UniProt Q07889). In words: Ras-SOS interaction assay (HTRF). It counts as biochemical.
Assay [2] concerns MIA PaCa-2 cells (K-Ras G12C). In words: Ras-SOS cellular growth inhibition assay (CellTiter-Glo, 3D). Type of assay: cell-based. The following applies: Homo sapiens. The essentials: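 MIA PaCa-2 cells grown in ultra-low-attachment plates (3D) in DMEM/Ham's F12 with 10% FCS and 2.5% horse serum, treated the day after seeding with a 9-point 3-fold compound series for about 5 days. Viability by CellTiter-Glo luminescence; IC50 from four-parameter fit.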
(In general: In ATP-based viability assays light output follows the ATP content of the culture.)

In assay [3] the test system is NCI-H1975 cells (EGFR T790M L858R). Description: EGFR-SOS cellular inhibition assay (CellTiter-Glo, 3D). It counts as cell-based. The following applies: Homo sapiens.
Setting [4] is: K-RasG13D utilized, read-out: IC50 inhibition of SOS.
The mark [5] stands for this setting: K-RasG13D, read-out: IC50 value against SOS1.
Where [6] appears, read: MIA PaCa-2, 120 h, MIA PaCa-2, 3D proliferation, about 5 days, read-out: Bio-Cell-Prolif-3D (MiaPaca2 IC50).
Setting [7] is: MIA PaCa-2, MIA PaCa-2, read-out: IC50 in inhibiting MIA PaCa-2 cell growth.
Where [8] appears, read: 120 h, NCI-H1975, 3D proliferation, about 5 days, read-out: Bio-Cell-Prolif-3D (H1975 IC50).
Setting [9] is: NCI-H1975, EGFR T790M L858R, read-out: IC50 in inhibiting growth of NCI-H1975 cell line.

Sequence of SOS1 (Q07889 564-1049): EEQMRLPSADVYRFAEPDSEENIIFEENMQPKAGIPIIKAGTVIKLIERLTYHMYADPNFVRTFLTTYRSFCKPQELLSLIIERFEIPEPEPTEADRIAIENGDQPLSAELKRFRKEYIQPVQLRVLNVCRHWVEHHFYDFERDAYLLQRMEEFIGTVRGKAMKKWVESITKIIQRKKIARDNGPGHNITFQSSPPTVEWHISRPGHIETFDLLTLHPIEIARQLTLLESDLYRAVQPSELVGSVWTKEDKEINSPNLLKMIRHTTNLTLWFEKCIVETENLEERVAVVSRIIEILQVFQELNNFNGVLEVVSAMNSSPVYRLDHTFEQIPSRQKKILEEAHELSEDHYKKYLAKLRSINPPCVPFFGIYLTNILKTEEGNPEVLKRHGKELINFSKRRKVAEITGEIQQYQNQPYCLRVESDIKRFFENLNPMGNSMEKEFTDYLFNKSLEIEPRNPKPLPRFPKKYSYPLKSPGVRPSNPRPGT

On to `COCCOc1nc2nc(C)nc(N[C@H](C)c3cccc(C(F)F)c3F)c2cc1C1CCS(=O)(=O)CC1` [Compound 157, (R)-4-(4-((1-(3-(difluoromethyl)-2-fluorophenyl)ethyl)amino)-7-(2-methoxyethoxy)-2-methylpyrido[2,3-d]pyrimidin-6-yl)tetrahydro-2H-thiopyran 1,1-dioxide], for which the half-inhibitory concentration (IC50) was less than 100 nM in assay [1] (setting [4]); less than 50 nM in assay [1] (setting [5]); no more than 1000 nM in assay [2] (setting [6]); less than 500 nM in assay [2] (setting [7]); no more than 1000 nM in assay [3] (setting [8]); less than 500 nM in assay [3] (setting [9]).
For the compound `COCCOc1nc2nc(C)nc(N[C@H](C)c3cccc(C(F)F)c3OCCOC)c2cc1C1CCS(=O)(=O)CC1` [Compound 158, (R)-4-(4-((1-(3-(difluoromethyl)-2-(2-methoxyethoxy)phenyl)ethyl)amino)-7-(2-methoxyethoxy)-2-methylpyrido[2,3-d]pyrimidin-6-yl)tetrahydro-2H-thiopyran 1,1-dioxide], the 50% inhibitory concentration (IC50) was less than 100 nM in assay [1] (setting [4]), no more than 1000 nM in assay [2] (setting [6]) and 1000 to 10000 nM in assay [3] (setting [8]).
As to `COc1nc2nc(C)nc(N[C@H](C)c3cccc(C(F)(F)C4CCN(C(C)C)CC4)c3F)c2cc1C1CCN(C(C)C)CC1` [Compound 161, (R)-N-(1-(3-(difluoro(1-isopropylpiperidin-4-yl)methyl)-2-fluorophenyl)ethyl)-6-(1-isopropylpiperidin-4-yl)-7-methoxy-2-methylpyrido[2,3-d]pyrimidin-4-amine], the half-maximal inhibitory concentration (IC50) was less than 100 nM in assay [1] (setting [4]); less than 50 nM in assay [1] (setting [5]); no more than 1000 nM in assay [2] (setting [6]); less than 500 nM in assay [2] (setting [7]); no more than 1000 nM in assay [3] (setting [8]); less than 500 nM in assay [3] (setting [9]).
Consider `COc1nc2nc(C)nc(N[C@H](C)c3cccc(C(F)(F)C4CCN(C(C)C)CC4)c3F)c2cc1N1CCN(C(C)C)CC1` [Compound 163, (R)-N-(1-(3-(difluoro(1-isopropylpiperidin-4-yl)methyl)-2-fluorophenyl)ethyl)-6-(4-isopropylpiperazin-1-yl)-7-methoxy-2-methylpyrido[2,3-d]pyrimidin-4-amine], for which the IC50 was less than 100 nM in assay [1] (setting [4]); less than 50 nM in assay [1] (setting [5]); no more than 1000 nM in assay [2] (setting [6]); less than 500 nM in assay [2] (setting [7]); no more than 1000 nM in assay [3] (setting [8]); less than 500 nM in assay [3] (setting [9]).
With `COc1nc2nc(C)nc(N[C@H](C)c3cccc(C(F)(F)F)c3F)c2cc1C1CCN(C(C)=O)CC1` [Compound 165, (R)-1-(4-(4-((1-(2-fluoro-3-(trifluoromethyl)phenyl)ethyl)amino)-7-methoxy-2-methylpyrido[2,3-d]pyrimidin-6-yl)piperidin-1-yl)ethan-1-one], the half-maximal inhibitory concentration (IC50) in assay [1] (setting [4]) was less than 100 nM; in assay [1] (setting [5]), less than 50 nM; in assay [2] (setting [6]) it was no more than 1000 nM; in assay [3] (setting [8]), no more than 1000 nM; in assay [3] (setting [9]), less than 500 nM.
Regarding `COc1nc2ncnc(N[C@H](C)c3cccc(C(F)(F)F)c3F)c2cc1N1CCN(C2CCOCC2)CC1` [Compound 166, (R)-N-(1-(2-fluoro-3-(trifluoromethyl)phenyl)ethyl)-7-methoxy-6-(4-(tetrahydro-2H-pyran-4-yl)piperazin-1-yl)pyrido[2,3-d]pyrimidin-4-amine], the 50% inhibitory concentration (IC50) in assay [1] (setting [4]) was less than 100 nM; in assay [1] (setting [5]), less than 50 nM; in assay [2] (setting [6]), no more than 1000 nM; in assay [2] (setting [7]), less than 500 nM; in assay [3] (setting [8]), no more than 1000 nM; in assay [3] (setting [9]) it was less than 500 nM.
As to `COc1nc2nc(C)nc(N[C@H](C)c3cccc(C(F)(F)F)c3F)c2cc1C1CCN(C(=O)C2CN(C)CCO2)CC1` (stereo partly drawn) [Compound 167, (4-(4-(((R)-1-(2-fluoro-3-(trifluoromethyl)phenyl)ethyl)amino)-7-methoxy-2-methylpyrido[2,3-d]pyrimidin-6-yl)piperidin-1-yl)(4-methylmorpholin-2-yl)methanone], the 50% inhibitory concentration (IC50) was less than 100 nM in assay [1] (setting [4]), less than 50 nM in assay [1] (setting [5]), 1000 to 10000 nM in assay [2] (setting [6]) and no more than 1000 nM in assay [3] (setting [8]).
In the case of `COc1nc2nc(C)nc(N[C@H](C)c3cccc(C(F)(F)C(C)(C)O)c3F)c2cc1N1CCS(=O)(=O)CC1` [Compound 169, (R)-4-(4-((1-(3-(1,1-difluoro-2-hydroxy-2-methylpropyl)-2-fluorophenyl)ethyl)amino)-7-methoxy-2-methylpyrido[2,3-d]pyrimidin-6-yl)thiomorpholine 1,1-dioxide], the half-maximal inhibitory concentration (IC50) in assay [1] (setting [4]) is less than 100 nM; in assay [1] (setting [5]), less than 50 nM; in assay [2] (setting [6]) it was no more than 1000 nM; in assay [2] (setting [7]), less than 500 nM; in assay [3] (setting [8]) it was no more than 1000 nM; in assay [3] (setting [9]), less than 500 nM.
Take `COc1nc2nc(C)nc(N[C@H](C)c3cccc(C(F)(F)CCC4CNC4)c3F)c2cc1C1(C#N)CC1` [Compound 172, (R)-1-(4-((1-(3-(3-(azetidin-3-yl)-1,1-difluoropropyl)-2-fluorophenyl)ethyl)amino)-7-methoxy-2-methylpyrido[2,3-d]pyrimidin-6-yl)cyclopropane-1-carbonitrile]: the IC50 was less than 100 nM in assay [1] (setting [4]); less than 50 nM in assay [1] (setting [5]); 1000 to 10000 nM in assay [2] (setting [6]); no more than 1000 nM in assay [3] (setting [8]); less than 500 nM in assay [3] (setting [9]).
For `COc1nc2nc(C)nc(N[C@H](C)c3cccc(C(F)(F)C(C)(C)O)c3)c2cc1C1CCS(=O)(=O)CC1` [Compound 173, (R)-4-(4-((1-(3-(1,1-difluoro-2-hydroxy-2-methylpropyl)phenyl)ethyl)amino)-7-methoxy-2-methylpyrido[2,3-d]pyrimidin-6-yl)tetrahydro-2H-thiopyran 1,1-dioxide] the same measures were less than 100 nM, less than 50 nM, 1000 to 10000 nM, no more than 1000 nM and less than 500 nM.
Regarding `COc1nc2nc(C)nc(N[C@H](C)c3cccc(C(F)(F)CO)c3F)c2cc1C1CCS(=O)(=O)CC1` [Compound 174, (R)-4-(4-((1-(3-(1,1-difluoro-2-hydroxyethyl)-2-fluorophenyl)ethyl)amino)-7-methoxy-2-methylpyrido[2,3-d]pyrimidin-6-yl)tetrahydro-2H-thiopyran 1,1-dioxide], the IC50 in assay [1] (setting [4]) is less than 100 nM; in assay [1] (setting [5]), less than 50 nM; in assay [2] (setting [6]) it was no more than 1000 nM; in assay [2] (setting [7]), less than 500 nM; in assay [3] (setting [8]), no more than 1000 nM; in assay [3] (setting [9]), less than 500 nM.
Consider `COc1nc2nc(C)nc(N[C@H](C)c3cccc(C(F)(F)CCC4CN(C(C)C)C4)c3F)c2cc1C1(C#N)CC1` [Compound 176, (R)-1-(4-((1-(3-(1,1-difluoro-3-(1-isopropylazetidin-3-yl)propyl)-2-fluorophenyl)ethyl)amino)-7-methoxy-2-methylpyrido[2,3-d]pyrimidin-6-yl)cyclopropane-1-carbonitrile], for which the IC50 in assay [1] (setting [4]) is less than 100 nM; in assay [1] (setting [5]) it was less than 50 nM; in assay [2] (setting [6]), no more than 1000 nM; in assay [2] (setting [7]), less than 500 nM; in assay [3] (setting [8]) it was no more than 1000 nM; in assay [3] (setting [9]) it was less than 500 nM.
In the case of `COc1nc2nc(C)nc(N[C@H](C)c3cccc(C(F)(F)CCC4CN(C)C4)c3F)c2cc1C1(C#N)CC1` [Compound 177, (R)-1-(4-((1-(3-(1,1-difluoro-3-(1-methylazetidin-3-yl)propyl)-2-fluorophenyl)ethyl)amino)-7-methoxy-2-methylpyrido[2,3-d]pyrimidin-6-yl)cyclopropane-1-carbonitrile], the IC50 in assay [1] (setting [4]) was less than 100 nM; in assay [1] (setting [5]), less than 50 nM; in assay [2] (setting [6]), no more than 1000 nM; in assay [2] (setting [7]), less than 500 nM; in assay [3] (setting [8]), no more than 1000 nM; in assay [3] (setting [9]), less than 500 nM.
`Cc1nc(N[C@H](C)c2cccc(C(F)(F)F)c2C)c2cc(C3(C#N)CC3)c(N3CCN(C(C)C)CC3)nc2n1` [Compound 178, (R)-1-(7-(4-isopropylpiperazin-1-yl)-2-methyl-4-((1-(2-methyl-3-(trifluoromethyl)phenyl)ethyl)amino)pyrido[2,3-d]pyrimidin-6-yl)cyclopropane-1-carbonitrile]: the concentration for half-maximal inhibition (IC50) is less than 100 nM in assay [1] (setting [4]); less than 50 nM in assay [1] (setting [5]); no more than 1000 nM in assay [2] (setting [6]); less than 500 nM in assay [2] (setting [7]); 1000 to 10000 nM in assay [3] (setting [8]).
As to `COc1nc2nc(C)nc(N[C@H](C)c3cccc(C(F)(F)CO)c3)c2cc1C1(C#N)CC1` [Compound 179, (R)-1-(4-((1-(3-(1,1-difluoro-2-hydroxyethyl)phenyl)ethyl)amino)-7-methoxy-2-methylpyrido[2,3-d]pyrimidin-6-yl)cyclopropane-1-carbonitrile], the IC50 was less than 100 nM in assay [1] (setting [4]); less than 50 nM in assay [1] (setting [5]); no more than 1000 nM in assay [2] (setting [6]); less than 500 nM in assay [2] (setting [7]); no more than 1000 nM in assay [3] (setting [8]); less than 500 nM in assay [3] (setting [9]).
On to `COc1nc2nc(C)nc(N[C@H](C)c3cccc(C(F)(F)CCC4CN(C)C4)c3F)c2cc1C1CCS(=O)(=O)CC1` [Compound 180, (R)-4-(4-((1-(3-(1,1-difluoro-3-(1-methylazetidin-3-yl)propyl)-2-fluorophenyl)ethyl)amino)-7-methoxy-2-methylpyrido[2,3-d]pyrimidin-6-yl)tetrahydro-2H-thiopyran 1,1-dioxide], for which the IC50 in assay [1] (setting [4]) was less than 100 nM; in assay [1] (setting [5]), less than 50 nM; in assay [2] (setting [6]) it was no more than 1000 nM; in assay [2] (setting [7]) it was less than 500 nM; in assay [3] (setting [8]), no more than 1000 nM; in assay [3] (setting [9]) it was less than 500 nM.
